Literature values as cited in patent US20070212431A1, “Cream for treatment of skin injured by the sun” (priority 2001, published 2007).

Tests used:
[1] = applied to the skin in ethyl alcohol solution, after penetrating the horny layer
photodamaged skin = details: controlled studies (Q-10); open uncontrolled clinical study (lipoic acid)
[2] = topical application to the skin

Row | SMILES | share reaching the dermis [1] | share reaching the living part of epidermis [1] | effect on photodamaged skin (photodamaged skin) | time until found in the dermis [2]
1 | COC1=C(OC)C(=O)C(C/C=C(\C)CC/C=C(\C)CC/C=C(\C)CC/C=C(\C)CC/C=C(\C)CC/C=C(\C)CC/C=C(\C)CC/C=C(\C)CC/C=C(\C)CCC=C(C)C)=C(C)C1=O [Q-10, coenzyme Q-10] | ~2% | about 20% | to some extent has been shown to have an effect | –
2 | O=C(O)CCCCC1CCSS1 (racemic) [lipoic acid, d,l-α-lipoic acid] | – | – | shown to have an effect on photodamaged skin to a certain extent | ≤ 4 h
